These results are taken from patent US9408853B2, “Iridium/rhodium anti-cancer compounds” (University of Warwick, priority 2010, dated 2016).

As a reminder, the IC50 is the concentration needed to halve the response being measured. The low end stands for higher potency, the high end for lower potency.

One series relates to A549 cancer cell line. The series can be described thus: Cytotoxicity, MTT assay (Brabec group). It is filed as cell-based. Here is the method:
(§1) The cytotoxicity test of ZL07, ZL33, ZL38 and ZL54 against A2780, SW480, A549 and CH1 cell lines was performed by Viktor Brabec group (Institute of Biophysics, Academy of Sciences of the Czech Republic). After plating, the cells were treated with ZL07, ZL33, ZL38 and ZL54. After 72h of incubation 10 μl of MTT (2.5 mg/ml; CALBIOCHEM) was added to each well and incubated for 4 h in culture conditions. At the end of the incubation period the medium was removed and the formazan product was dissolved in 100 μl DMSO. The cell viability was evaluated by measurement of the absorbance at 570 nm, using an Absorbance Reader SUNRICE TECAN SCHOELLER. […] All experiments were made in quadruplicate.
Background: Tetrazolium assays rely on reduction of a dye to a coloured formazan, in cell work by metabolically active cells.

In a further series the test system is SW480 cancer cell line. The series can be described thus: Cytotoxicity, MTT assay (Brabec group). It is filed as cell-based. As to the method: as §1
The test system of a further series is CH1 cancer cell line. In words: Cytotoxicity, MTT assay (Brabec group). It is filed as cell-based. Here is the method: as §1
The subject of the next series is 9-ethylguanine (9-EtG). The series can be described thus: Interactions with nucleobases: 9-EtG adduct formation (1H NMR). The class given is binding. The following applies: 1 mM, 1 mol equiv 9-EtG (ZL33A: 2 mol equiv), D2O, 310 K. The method in brief: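 Complexes (1 mM, equilibrium mixture with their aqua adducts) in 5% MeOD-d4/95% D2O mixed with 1–2 mol equiv 9-EtG in D2O. Adduct formation followed by 1H NMR at 310 K over various time intervals.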

[1] abbreviates: highest test concentration 130 μM.

Where “and” joins values, the source holds several entries; their conditions need not be identical. Identical values can stand only once.

For `Cc1c(C)c(-c2ccccc2)[c-](C)c1C.F[P-](F)(F)(F)(F)F.[Cl-].[Ir+3].c1cnc2c(c1)ccc1cccnc12` (stereo not drawn) [ZL33, [(η^5-C5Me4C6H5)Ir(phen)Cl]PF6], the IC50 in the series with A549 cancer cell line (72 h incubation, MTT) turned out to be 11500 ± 2400 nM; with SW480 cancer cell line (72 h incubation, MTT), 1410 ± 200 nM; in the series with CH1 cancer cell line (72 h incubation, MTT) it was 1320 ± 300 nM. Further, the “cytotoxicity towards A549 (in words)” value with A549 cancer cell line (setting [1]) is reported as “promising cytotoxicity”. Also, in the series on SW480 cancer cell line (SW480), the “times more active than cisplatin” value is “ca. 6.5 times”. In addition, the “cytotoxicity towards SW480 (in words)” value in the series on SW480 cancer cell line (setting [1]) is on record as “promising cytotoxicity”. Besides, the “cytotoxicity towards CH1 (in words)” value in the series with CH1 cancer cell line (setting [1]) is recorded as “promising cytotoxicity”. Also, the “Reaction with 9-EtG, extent of adduct formation” value in the series on 9-ethylguanine (9-EtG) (10 min) is 15% and 15.5%; in the series with 9-ethylguanine (9-EtG) (24 h), 42.2%.
